The values below come from ChEMBL document CHEMBL3112432, “Synthesis of 5α-cholestan-6-one derivatives and their inhibitory activities of NO production in activated microglia: discovery of a novel neuroinflammation inhibitor” (Bioorg Med Chem Lett, 2014).

The structures appear in SMILES notation. The source made the active and inactive calls. No cut-off for these calls is given here.

The nature of data set [1]: Cytotoxicity against mouse BV2 cells assessed as cell viability at 40 uM after 24 hrs by MTT assay relative to control. Format: cell-based, BV-2. To be noted: read-out: Activity. (In general: Formazan colour is commonly taken as a measure of viable cells.)
For data set [2], the system named is Mus musculus. The data set is described as follows: Neuroprotective activity in ip dosed mouse middle cerebral artery occlusion model assessed as reduction in infarction volume administered 1 hr prior to onset of ischemia measured after 24 hrs by TTC staining-based microscopic analysis. Format: functional, organism-based.
For data set [3], the system named is BV-2. Kind of data set: Antiinflammatory activity in mouse BV2 cells assessed as inhibition of LPS-stimulated TNF-alpha mRNA expression preincubated for 30 mins followed by LPS-stimulation by RT-PCR analysis. It is filed as functional, cell-based.
Data set [4] in a line: Antiinflammatory activity in LPS-stimulated mouse BV2 cells assessed as inhibition of NO production at 40 uM after 24 hrs by Griess method relative to control. It is filed as functional. The conditions noted are these: BV-2, 24 h. Background: Griess reagent forms a coloured azo dye with nitrite.
Data set [5] concerns BV-2. The data set is described as follows: Antiinflammatory activity in mouse BV2 cells assessed as inhibition of LPS-stimulated COX-2 mRNA expression preincubated for 30 mins followed by LPS-stimulation by RT-PCR analysis. Format: functional, cell-based.
The subject of data set [6] is BV-2. Kind of data set: Antiinflammatory activity in mouse BV2 cells assessed as inhibition of LPS-stimulated iNOS protein expression at 40 uM preincubated for 30 mins followed by LPS-stimulation measured after 16 hrs by Western blotting analysis. Format: functional, cell-based.
The test system of data set [7] is Mus musculus. The data set is described as follows: Neuroprotective activity in mouse middle cerebral artery occlusion model assessed as reduction in activated microglial cells in medial periphery of cortical infarct area at 30 mg/kg, ip administered 1 hr prior to onset of ischemia measured after 24 hrs by Iba-1 staining-based microscopic analysis. The arrangement: dose 30 mg/kg. It is filed as functional, organism-based.

Data set [8] deals with BV-2. The data set is described as follows: Antiinflammatory activity in LPS-stimulated mouse BV2 cells assessed as inhibition of NO production after 24 hrs by Griess method. It is filed as functional, cell-based.
Data set [9] relates to BV-2. Kind of data set: Antiinflammatory activity in mouse BV2 cells assessed as inhibition of LPS-stimulated iNOS mRNA expression preincubated for 30 mins followed by LPS-stimulation by RT-PCR analysis. Format: functional, cell-based.
The subject of data set [10] is BV-2. The data set is described as follows: Antiinflammatory activity in mouse BV2 cells assessed as inhibition of LPS-stimulated IL-1beta mRNA expression preincubated for 30 mins followed by LPS-stimulation by RT-PCR analysis. Format: functional, cell-based.
Data set [11] concerns BV-2. Kind of data set: Antiinflammatory activity in mouse BV2 cells assessed as inhibition of LPS-stimulated COX-2 protein expression at 40 uM preincubated for 30 mins followed by LPS-stimulation measured after 16 hrs by Western blotting analysis. Format: functional, cell-based. (In general: In western blotting, separated proteins are transferred to a membrane and probed.)

On to `COC(=O)CC[C@@H](C)[C@H]1CC[C@H]2[C@@H]3[C@H](O)C(=O)[C@H]4C[C@H](O)CC[C@]4(C)[C@H]3CC[C@]12C`, for which the viability at 24 h, 40 µM in data set [1] was found to be 95.4%. The Activity entry in the data set with Mus musculus [2] is “Dose-dependent effect”. For the same molecule, the inhibition result in the data set with BV-2 [3], in the data set with BV-2 [5], in the data set with BV-2 [8], with BV-2 [9] and in the data set with BV-2 [10] was “Dose-dependent effect” each time. The inhibition at 40 µM in [4] is 73.6%. In addition, the inhibition result in the data set on BV-2 [6] and with BV-2 [11] was “Active” in each case. In addition, the result with Mus musculus [7] was Active.

Broadly, the inhibition is the relative decrease from the control value, in per cent.
